Experimental data published in ChEMBL document CHEMBL1201862, “PubChem BioAssay data set” (2004).
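The compound was tested at five concentrations on cells cultured in 96-well plates, with a 48-hour exposure period. Here, GI50 denotes the concentration required for 50% inhibition of growth.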 Activity calls are given as the source filed them. Cut-off read from the data, not from the text of the source: active = GI50 up to about 1.1 µM and inactive = higher.

Legend:
Assay in all cases: DTP human tumour cell line panel, 48 h
786-0 = system: 786-0
A498 = system: A498
A549 = system: A549
ACHN = system: ACHN
BT-549 = system: BT-549
CAKI-1 = system: CAKI-1
CCRF-CEM = system: CCRF-CEM
COLO 205 = system: COLO 205
DU-145 = system: DU-145
EKVX = system: EKVX
HCC 2998 = system: HCC 2998
HCT-116 = system: HCT-116
HCT-15 = system: HCT-15
HL-60 = system: HL-60
HOP-92 = system: HOP-92
HT-29 = system: HT-29
IGROV-1 = system: IGROV-1
K562 = system: K562
KM12 = system: KM12
LOX IMVI = system: LOX IMVI
M14 = system: M14
MCF7 = system: MCF7
MDA-MB-435 = system: MDA-MB-435
MDA-N = system: MDA-N
MOLT-4 = system: MOLT-4
Malme-3M = system: Malme-3M
NCI-H226 = system: NCI-H226
NCI-H23 = system: NCI-H23
NCI-H460 = system: NCI-H460
NCI-H522 = system: NCI-H522
NCI/ADR-RES = system: NCI/ADR-RES
OVCAR-4 = system: OVCAR-4
OVCAR-5 = system: OVCAR-5
OVCAR-8 = system: OVCAR-8
RXF 393 = system: RXF 393
SF-539 = system: SF-539
SK-MEL-28 = system: SK-MEL-28
SK-MEL-5 = system: SK-MEL-5
SN12C = system: SN12C
SNB-19 = system: SNB-19
SNB-75 = system: SNB-75
SR = system: SR
SW-620 = system: SW-620
T47D = system: T47D
UACC-257 = system: UACC-257
UACC-62 = system: UACC-62
UO-31 = system: UO-31

For COc1cc(/C=C2\N=C(c3ccccc3)N(c3cc4cc(Sc5ccccc5)ccc4[nH]3)C2=O)ccc1O, the GI50 (786-0) was 9.59 µM (inactive), the GI50 (A498) was 0.102 µM (active) and the GI50 (A549) was > 50 µM (inactive). For the same molecule, the GI50 (ACHN) was 7.46 µM (inactive), the GI50 (BT-549) was 13.6 µM (inactive) and the GI50 (CAKI-1) was 11.1 µM (inactive). For the same molecule, the GI50 (CCRF-CEM) was 2.69 µM (inactive), the GI50 (COLO 205) was 2.35 µM (inactive) and the GI50 (DU-145) was 11.7 µM (inactive). The GI50 (EKVX) was 22.1 µM (inactive), the GI50 (HCC 2998) was 5.82 µM (inactive) and the GI50 (HCT-116) was 2.11 µM (inactive). For the same molecule, the GI50 (HCT-15) was 2.86 µM, the GI50 (HL-60) was 1.39 µM (inactive) and the GI50 (HOP-92) was 6.12 µM (inactive). For the same molecule, the GI50 (HT-29) was 3.51 µM (inactive), the GI50 (IGROV-1) was 3.28 µM (inactive) and the GI50 (K562) was 1.97 µM (inactive). For the same molecule, the GI50 (KM12) was > 50 µM (inactive), the GI50 (LOX IMVI) was 29.9 µM (inactive) and the GI50 (M14) was 3.65 µM (inactive). The GI50 (MCF7) was 0.255 µM (active), the GI50 (MDA-MB-435) was 1.46 µM (inactive) and the GI50 (MDA-N) was 1.07 µM (active). The GI50 (MOLT-4) was 2.49 µM (inactive), the GI50 (Malme-3M) was 1.43 µM (inactive) and the GI50 (NCI-H226) was > 50 µM (inactive). For the same molecule, the GI50 (NCI-H23) was 18.5 µM (inactive), the GI50 (NCI-H460) was 2.36 µM (inactive) and the GI50 (NCI-H522) was 1.86 µM (inactive). The GI50 (NCI/ADR-RES) was 3.13 µM (inactive), the GI50 (OVCAR-4) was 35 µM (inactive) and the GI50 (OVCAR-5) was > 50 µM (inactive). For the same molecule, the GI50 (OVCAR-8) was 12.3 µM (inactive), the GI50 (RXF 393) was 5.02 µM (inactive) and the GI50 (SF-539) was 5.14 µM (inactive). For the same molecule, the GI50 (SK-MEL-28) was > 50 µM (inactive), the GI50 (SK-MEL-5) was 2.54 µM (inactive) and the GI50 (SN12C) was 7.87 µM (inactive). The GI50 (SNB-19) was > 50 µM (inactive), the GI50 (SNB-75) was 21.8 µM (inactive) and the GI50 (SR) was 2.12 µM (inactive). The GI50 (SW-620) was 3.58 µM (inactive), the GI50 (T47D) was 5.52 µM (inactive) and the GI50 (UACC-257) was 14.8 µM (inactive). For the same molecule, the GI50 (UACC-62) was 0.188 µM (active) and the GI50 (UO-31) was 15.6 µM (inactive).
